According to paper PMC5351967, “Blue-light induced accumulation of reactive oxygen species is a consequence of the Drosophila cryptochrome photocycle” (PLoS ONE, 2017):

Target: T1, DmCry (Drosophila melanogaster, UniProt O77059)
T1 construct: gene cry
Experiment: UV-visible absorption spectroscopy of protein-bound flavin, photoreduction and dark reoxidation
Assay type: binding
Conditions: co-purified cofactor; 50 mM phosphate pH 7.5, 10 mM beta-mercaptoethanol, 21 °C; blue light

T1 sequence (O77059 whole entry): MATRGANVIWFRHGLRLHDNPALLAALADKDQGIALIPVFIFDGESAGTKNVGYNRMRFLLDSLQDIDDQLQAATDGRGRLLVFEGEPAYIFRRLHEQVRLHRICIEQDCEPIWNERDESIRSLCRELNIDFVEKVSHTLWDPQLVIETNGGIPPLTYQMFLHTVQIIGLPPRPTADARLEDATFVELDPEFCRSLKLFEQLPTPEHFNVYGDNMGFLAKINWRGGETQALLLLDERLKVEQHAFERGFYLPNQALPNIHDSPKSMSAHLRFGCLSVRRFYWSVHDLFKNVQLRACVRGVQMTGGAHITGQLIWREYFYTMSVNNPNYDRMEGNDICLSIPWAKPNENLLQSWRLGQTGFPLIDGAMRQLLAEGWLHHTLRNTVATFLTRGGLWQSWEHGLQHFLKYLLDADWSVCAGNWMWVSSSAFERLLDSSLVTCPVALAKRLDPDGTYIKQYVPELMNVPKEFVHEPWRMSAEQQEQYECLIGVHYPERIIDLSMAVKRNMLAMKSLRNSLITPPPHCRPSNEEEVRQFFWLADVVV

## Cc1cc2nc3c(=O)[nH]c(=O)nc-3n(C[C@H](O)[C@H](O)[C@H](O)COP(=O)(O)OP(=O)(O)OC[C@H]3O[C@@H](n4cnc5c(N)ncnc54)[C@H](O)[C@@H]3O)c2cc1C [FAD]
  UV-visible absorption spectroscopy of protein-bound flavin, photoreduction and d: Flavin reduction to the anionic radical (FAD^•-) redox form could then be observed
